Measured values reported in ChEMBL document CHEMBL5150058, “Synthesis and biological evaluation of novel photo-clickable adenosine and cyclic ADP-ribose analogs: 8-N3-2'-O-propargyladenosine and 8-N3-2'-O-propargyl-cADPR” (Bioorg Med Chem, 2022).
One block for each compound: values may come before it. The source made the active and inactive calls. The calls are words filed in the database; no cut-off is given here.

Experiments:
[1] = Antagonist activity at cADPR binding protein in sea urchin egg homogenate assessed as inhibition of cADPR-induced Ca2+ release by Fluo-3 based fluorescence assay; assay type: tissue-based, Strongylocentrotus purpuratus
[2] = tested on: Strongylocentrotus purpuratus; test: Agonist activity at cADPR binding protein in sea urchin egg homogenate assessed as increase in Ca2+ release at 100 uM by Fluo-3 based fluorescence assay relative to control; assay type: tissue-based
U2OS = test: Agonist activity at cADPR binding protein in human U2OS cells expressing GCaMP6M assessed as increase in Ca2+ release at 30 uM by confocal Ca2+ imaging analysis; assay type: cell-based; settings: filed as agonist
[3] = Agonist activity at cADPR binding protein in sea urchin egg homogenate assessed as increase in Ca2+ release by Fluo-3 based fluorescence assay; assay type: tissue-based, Strongylocentrotus purpuratus

IC50 [1]: 7 nM
Structure (SMILES): [N-]=[N+]=Nc1nc2c(N)[n+]3cnc2n1[C@@H]1O[C@H](COP(=O)(O)OP(=O)(O)OC[C@H]2O[C@@H]3[C@H](O)[C@@H]2O)[C@@H](O)[C@H]1O

Activity [2]: < 10%
Structure (SMILES): C#CCO[C@@H]1[C@H](O)[C@H]2COP(=O)(O)OP(=O)(O)OC[C@H]3O[C@H]([C@H](O)[C@@H]3O)[n+]3cnc4c(nc(N=[N+]=[N-])n4[C@@H]1O2)c3N

EC50 [3]: 110 nM
Structure (SMILES): Nc1c2ncn3c2nc[n+]1[C@@H]1O[C@H](COP(=O)([O-])OP(=O)(O)OC[C@H]2O[C@@H]3[C@H](O)[C@@H]2O)[C@@H](O)[C@H]1O
Activity (U2OS): Active

EC50 [3]: 8460 nM
Structure (SMILES): C#CCO[C@@H]1[C@H](O)[C@H]2COP(=O)(O)OP(=O)([O-])OC[C@H]3O[C@H]([C@H](O)[C@@H]3O)[n+]3cnc4c(ncn4[C@@H]1O2)c3N
